Reference: patent US10758513B2, “Modulators of mitochondrial protein import” (THE REGENTS OF THE UNIVERSITY OF CALIFORNIA, priority 2011, dated 2020)

How the values were obtained:
Tim9-Tim10 complex = assay: Crosslinking and immunoprecipitation of AAC with Tim9; type: biochemical, yeast; details: 25 μM MitoBloCK-1; BMH crosslinker
Method: Crosslinking and immunoprecipitation experiments were derived from procedures previously utilized (3) with the inclusion of MitoBloCK-1 or DMSO. Following import, a portion of the reaction was subjected to crosslinking with 0.5 mM bis-maleimidohexane (BMH) for 30 minutes on ice. After quenching crosslinking reactions with 1 mM β-mercaptoethanol, a fraction of each sample was subjected to immunoprecipitation with polyclonal antibodies against either Tim9, Tom22, or Tom40. For each immunoprecipitation, 20 μL of antisera was bound to […], of protein A-sepharose slurry according to established protocols (Murphy M P, et al., (2001), Mol Cell Biol 21:6132-6138).

[1] = system: strains lacking the mitochondrial genome (rho null); assay: Yeast growth inhibition, rho null strains; type: cell-based
Text: In general, a standard set of genetic and molecular techniques were used to generate the strains in this study (31, 32). Screening strains were generated based on previously characterized temperature sensitive mutants (see supplementary table 1). The snq1 and pdr5 deletions were introduced in each strain by strain mating with MDY326 or PCR-mediated deletion (33, 34). Overexpression strains were generated by transforming 2p yeast shuttle vectors carrying the gene of interest with the native promoter into the tim10-1 strain using a standard LiCl protocol (35). Transformed yeast was maintained on selective media appropriate for the plasmid's auxotrophic marker. Strains lacking mitochondrial DNA (rho null) were generated by two rounds of selection of the parent on YPD plates supplemented with ethidium bromide (40 μg/ml) followed by two rounds of single colony selection on YPD plates.
A primary screen was performed using freshly streaked tim10-1 diluted in YPD to an OD600 of approximately 0.0002 and kept on ice throughout the screening run. […] Each plate was shaken in a Beckman orbital shaker to resuspend settled cells, and the OD600 in each well was read by a Wallac Victor plate reader (Perkin Elmer). The top 600 growth inhibitory compounds were determined and assembled into two plates. […]

[2] = system: tim10-1 tim9S mitochondria; assay: In vitro import of radiolabeled precursors into tim10-1 tim9S mitochondria; type: biochemical, yeast
Method: Prior to import into purified mitochondria, ^35S-methionine and cysteine labeled proteins were generated with TNT Quick Coupled Transcription/Translation kits (Promega) and plasmids carrying the gene of interest. Transcription of genes was driven by either a T7 or SP6 promoter. Import reactions were conducted according to established methods. After frozen mitochondria aliquots were thawed and added to the import buffer at a final concentration of 100 μg/mL, drug or DMSO vehicle was added as indicated. A final vehicle concentration of 1% was used in all experiments. Following 15 minute incubation at 25° C., import reactions were initiated by the addition of […] of translation mix. Aliquots were removed at intervals during the reaction timecourse and import was terminated with either cold buffer, 25 μg/mL trypsin, or a combination of both. If trypsin was added to digest unimported precursor protein, soybean trypsin inhibitor (STI) was subsequently added in excess after 15 minute incubation on ice. After a final recovery of by centrifugation (8,000×g, 5 minutes), mitochondria were disrupted in Laemmli sample buffer. Imports of membrane proteins (AAC, PiC, Tom40, Tim22, and Tim23) included a carbonate extraction step to remove proteins that had not inserted into the membrane (Koehler C M, et al. (1998), Science 279:369-373). Samples from import reaction time points were resolved by SDS polyacrylamide gel electrophoresis (SDSPAGE) and gels were dried prior to exposing to film.

HSF1 hESCs = assay: Assays in human embryonic stem cells (HSF1); type: cell-based; details: 20 μM; alkaline phosphatase staining
Method: Human embryonic stem cell (hESCs) line hSF1 was cultured in Stem Pro SFM (Gibco) supplemented with 10 ng/ml bFGF on Matrigel (BD Biosciences) coated plates under 5% CO2, 95% air. Differentiation involved culturing cells in Stem Pro SFM with 10 μM retinoic acid (Acros Organics) for 4 days. Cells were treated with the specific concentration of the compounds or 1% DMSO as a control. For the induction of apoptosis, cells were exposed to 20 μM actinomycin D (Sigma) with or without 100 μM z-VAD-FMK (MP Biomedical). Following treatment, cells were fixed with 3.7% formaldehyde for indirect immunofluorescence study or lysed with Triton buffer (25 mM Tris-HCl pH 7.5, 150 mM NaCl, 1% Triton X-100, 1 mM EDTA) for analysis by SDS-PAGE. Bright field images were acquired with Exi Blue (QImaging). Immunofluorescent images were acquired with a 63× oil immersion objective on an LSM 5 PASCAL Laser Scanning Microscope (Carl Zeiss). Antibodies against cyt c (BD Pharmingen), Tom20 (Santa Cruz), cleaved caspase-3 (Cell Signaling) and poly (ADP-ribose) polymerase (Cell Signaling) were purchased from the indicated vendors. Alkaline phosphatase activity staining was performed with the leukocyte alkaline phosphatase kit (Sigma) as per manufacturer's protocol. […]

SMILES	crosslinked Tim9-AAC product after immunoprecipitation (Tim9-Tim10 complex)	sensitivity of rho null strains [1]	protease sensitivity of AAC precursor ([2]; presence of a membrane potential)	import of Hsp60 (TIM23 pathway) ([2]; tim10-1 tim9S mitochondria)	import of Mia40 (Mia40/Erv1 pathway) ([2]; tim10-1 tim9S mitochondria)	import of Su9-DHFR (TIM23 pathway) ([2]; tim10-1 tim9S mitochondria)	import of Tafazzin ([2]; tim10-1 tim9S mitochondria)	import of Tim9 (Mia40/Erv1 pathway) ([2]; tim10-1 tim9S mitochondria)	import of Tim10 (Mia40/Erv1 pathway) ([2]; tim10-1 tim9S mitochondria)	import of Tim22 ([2]; tim10-1 tim9S mitochondria)	import of Tim23 ([2]; tim10-1 tim9S mitochondria)	import of Tom40 ([2]; tim10-1 tim9S mitochondria)	import of cyt b2-DHFR (TIM23 pathway) ([2]; tim10-1 tim9S mitochondria)	import of phosphate carrier (PiC) ([2]; tim10-1 tim9S mitochondria)	import of AAC ([2]; tim10-1 tim9S mitochondria, 1 μM MitoBloCK-1 or greater)	time at which hESC viability started to decline (HSF1 hESCs) [h]
NC(=S)N/N=C/c1c(O)c(Br)cc2oc3c(c12)CCCC3 [MitoBloCK-1]	decreased	sensitive	sensitive to protease	did not impair import	not inhibited	did not impair import	import was inhibited	not inhibited	not inhibited	impaired	but not Tim23 was impaired	inhibited the import	did not impair import	inhibited the import	markedly decreased	–
Oc1c(Cl)cc(Cl)cc1/C=N/c1ccc(Nc2ccccc2)cc1 [MitoBloCK-6]	–	–	–	–	–	–	–	–	–	–	–	–	–	–	–	> 5
